In article PMC6792352, “Limited Chemical Structural Diversity Found to Modulate Thyroid Hormone Receptor in the Tox21 Chemical Library” (Environmental Health Perspectives, 2019):
Counter-ions that a name gives are not always drawn. Non-standard residues stand in square brackets, D forms with d. Residues, ends and D or L forms follow the SMILES beside them. pGlu = O=C1CC[C@@H](C(=O)O)N1

Assay: in vitro
Conditions: rat, gh3-tre-luc cells, AC50 (uM) modified / 1000

Row | SMILES | CC50 at 24 h
1 | CC(=O)NC[C@H]1CN(c2ccc(N3CCOCC3)c(F)c2)C(=O)O1 [Linezolid] | > 50 µM
2 | CCOC(=O)c1ccccc1 [Ethyl benzoate] | > 90 µM
3 | CC(NNC(=O)c1ccccc1)c1ccccc1 (stereo not drawn) [Benmoxin] | > 50 µM
4 | O=C1C[C@@H]2OCC=C3CN4CC[C@]56c7ccccc7N1[C@H]5[C@H]2[C@H]3C[C@H]46 [Strychnine] | > 50 µM
5 | Cc1ccc(O)c([C@H](CCN(C(C)C)C(C)C)c2ccccc2)c1 [Tolterodine] | 18.9 µM
6 | CN(C)[C@@H]1C(O)=C(C(N)=O)C(=O)[C@@]2(O)C(O)=C3C(=O)c4c(O)cccc4[C@@](C)(O)[C@H]3[C@H](O)[C@@H]12 [Oxytetracycline hydrochloride] | > 90 µM
7 | O=C(O)Cc1csc(-c2ccc(Cl)cc2)n1 [Fenclozic acid] | > 50 µM
8 | CCCC(=O)O[C@]1(C(=O)CO)CC[C@H]2[C@@H]3CCC4=CC(=O)CC[C@]4(C)[C@H]3[C@@H](O)C[C@@]21C [Hydrocortisone 17-butyrate] | > 50 µM
9 | Cc1cc(Cl)c(C)cc1Cl [1,4-Dichloro-2,5-dimethylbenzene] | > 90 µM
10 | Cc1cc(C(=C2C=CC(=Nc3ccc(S(=O)(=O)O)cc3)C=C2)c2ccc(Nc3ccc(S(=O)(=O)O)cc3)cc2)cc(S(=O)(=O)O)c1N [C.I. Acid Blue 22] | > 60 µM
11 | CCCCCCC(O)CCCCCCCCCCC(=O)O (stereo not drawn) [12-Hydroxyoctadecanoic acid] | > 90 µM
12 | CCCCCCCO [1-Heptanol] | > 90 µM
13 | CO/N=C(\C(=O)N[C@@H]1C(=O)N2C(C(=O)OCOC(=O)C(C)(C)C)=C(C)CS[C@H]12)c1csc(N)n1 [Cefetamet pivoxil HCl] | > 50 µM
14 | CCCCCCCCCCCCCCCC(=O)OC/C=C(C)/C=C/C=C(C)/C=C/C1=C(C)CCCC1(C)C [Retinol palmitate] | > 50 µM
15 | C[C@@H](NCCCc1cccc(C(F)(F)F)c1)c1cccc2ccccc12 [Cinacalcet hydrochloride] | 5.95 µM
16 | CC(C)(C)C(=O)NCCCC(=O)O [Pivagabine] | > 50 µM
17 | CC1(C)C(=O)N(Cl)C(=O)N1Br [1-Bromo-3-chloro-5,5-dimethylhydantoin] | > 90 µM
18 | C=C(C)C(=O)OCCN(CC)CC [2-(Diethylamino)ethyl methacrylate] | > 90 µM
19 | COc1ccc(COC(C)=O)cc1 [4-Methoxybenzyl acetate] | > 80 µM
20 | COc1ccccc1O [2-Methoxyphenol] | > 90 µM
21 | C[C@@H]1C[C@H]2[C@@H]3CCC4=CC(=O)C=C[C@]4(C)[C@@]3(Cl)[C@@H](O)C[C@]2(C)[C@@]1(OC(=O)c1ccco1)C(=O)CCl [Mometasone furoate] | > 20 µM
22 | CC(=O)[C@]1(O)Cc2c(O)c3c(c(O)c2[C@@H](O[C@H]2C[C@H](N)[C@H](O)[C@H](C)O2)C1)C(=O)c1ccccc1C3=O [Idarubicin hydrochloride] | 0.162 µM
23 | Nc1ccc(NCCO)c([N+](=O)[O-])c1 [HC Red 3] | 52.7 µM
24 | O=C(O)CCCc1c[nH]c2ccccc12 [Indole-3-butyric acid] | > 90 µM

Row | SMILES | CC50 at 24 h
25 | O=C1c2ccccc2C(=O)C1c1ccc(F)cc1 [Fluindione] | > 50 µM
26 | CN(C)C [Trimethylamine hydrochloride] | > 90 µM
27 | O=C(O)CCc1nc2ccccc2[nH]1 [Procodazole] | > 50 µM
28 | Nc1nc(F)nc2c1ncn2[C@@H]1O[C@H](CO)[C@@H](O)[C@@H]1O [Fludarabine] | 52 µM
29 | c1ccc2nccnc2c1 [Quinoxaline] | > 90 µM
30 | CCOC(=O)C1=NOC(c2ccccc2)(c2ccccc2)C1 [Isoxadifen-ethyl] | > 90 µM
31 | CCN(C)C(=O)Oc1cccc([C@H](C)N(C)C)c1 [Rivastigmine tartrate] | > 50 µM
32 | CC(c1cc2ccccc2s1)N(O)C(N)=O (stereo not drawn) [Zileuton] | > 90 µM
33 | COCCO [2-Methoxyethanol] | > 90 µM
34 | CCCCOCC(C)O (stereo not drawn) [1-Butoxy-2-propanol] | > 90 µM
35 | OCC(CO)(CO)COCC(CO)(CO)CO [Dipentaerythritol] | > 90 µM
36 | C=CC[N+]1([C@H]2C[C@H]3[C@@H]4CC[C@H]5C[C@H](OC(C)=O)[C@@H](N6CCCCC6)C[C@]5(C)[C@H]4CC[C@]3(C)[C@H]2OC(=O)CC)CCCCC1 [Rapacuronium bromide] | > 50 µM
37 | O=C(O)c1cccc(N(Cc2cccnc2)c2ccc(OC(F)F)c(OC(F)F)c2)c1 [PharmaGSID_48510] | 75.3 µM
38 | FC(F)(Cl)C(F)(Cl)Cl [1,1,2-Trichloro-1,2,2-trifluoroethane] | > 90 µM
39 | CCCC(=O)c1ccccc1 [Butyrophenone] | > 90 µM
40 | O=C1NC(=O)[C@H]2[C@@H]1[C@@H]1C=C[C@H]2C1 [Noreximide] | > 50 µM
41 | Cc1cnc(C(=O)O)c[n+]1[O-] [Acipimox] | > 50 µM
42 | NC(=O)N/N=C/c1ccc([N+](=O)[O-])o1 [Nitrofurazone] | > 90 µM
43 | CC/C=C\CCOC(=O)CCCCC [(3Z)-Hex-3-en-1-yl hexanoate] | > 90 µM
44 | C=C[C@H]1C[N@@]2CC[C@H]1C[C@H]2[C@H](O)c1ccnc2ccc(OC)cc12 [Quinine hemisulfate salt monohydrate] | > 50 µM
45 | CN(C)CCN(Cc1ccccc1)c1ccccn1 [Tripelennamine citrate] | > 50 µM
46 | CC(=O)OCCCc1ccccc1 [3-Phenylpropyl acetate] | > 90 µM
47 | OC1(c2ccc(Cl)c(C(F)(F)F)c2)CCN(CCCC(c2ccc(F)cc2)c2ccc(F)cc2)CC1 [Penfluridol] | 3.98 µM
48 | COC(=O)c1cc(Oc2ccc(Cl)cc2Cl)ccc1[N+](=O)[O-] [Bifenox] | > 90 µM

Row | SMILES | CC50 at 24 h
49 | CC(=O)C1CCOC1=O (stereo not drawn) [3-Acetyldihydro-2(3H)-furanone] | > 100 µM
50 | CC[C@@H](CO)NC(=O)[C@@H]1C=C2c3cccc4c3c(cn4C)C[C@H]2N(C)C1 [Methysergide] | > 50 µM
51 | COc1ccc(C2NC(=S)N3C(c4ccc(OC)c(OC)c4)NC(=S)N23)cc1OC (stereo not drawn) [3,7-Bis(3,4-dimethoxyphenyl)tetrahydro-1H,5H-[1,2,4]triazolo[1,2-a][1,2,4]triazole-1,5-dithione] | 0.208 µM
52 | O=C(Nc1cccc2c(=O)cc(-c3nnn[nH]3)oc12)c1ccc(OCCCCc2ccccc2)cc1 [Pranlukast] | > 50 µM
53 | O=C1CCCCC1C1CCCCC1 (stereo not drawn) [1,1'-Bi(cyclohexyl)-2-one] | > 90 µM
54 | COC(=O)CCC[N+](C)(C)C [Carpronium chloride] | > 50 µM
55 | CN(C)C(=O)C1(N2CCCCC2)CCN(CC[C@@]2(c3ccc(Cl)c(Cl)c3)CN(C(=O)c3ccccc3)CCO2)CC1 [SSR 241586 HCl] | 4.07 µM
56 | C[C@@H](O[C@H]1OCCN(Cc2n[nH]c(=O)[nH]2)[C@H]1c1ccc(F)cc1)c1cc(C(F)(F)F)cc(C(F)(F)F)c1 [Aprepitant] | 11 µM
57 | CC(C)(Cl)Cl [2,2-Dichloropropane] | > 90 µM
58 | C#C[C@]1(O)CC[C@H]2[C@@H]3CCC4=CC(=NO)CC[C@@H]4[C@H]3CC[C@@]21CC [Norelgestromin] | 35.1 µM
59 | CCn1nc(C(=O)O)c(=O)c2cc3c(cc21)OCO3 [Cinoxacin] | > 20 µM
60 | CN(C)CCN(C)CCO [2-{[2-(Dimethylamino)ethyl](methyl)amino}ethanol] | > 90 µM
61 | C=C(C)CS(=O)(=O)O [Sodium 2-methylprop-2-ene-1-sulfonate] | > 90 µM
62 | O=NN1CCCCCC1 [N-Nitrosohexamethyleneimine] | > 90 µM
63 | Oc1cc(O)c(Cl)cc1Cl [4,6-Dichloro-1,3-benzenediol] | > 90 µM
64 | CC(=O)OCC1=C(C(=O)O)N2C(=O)[C@@H](NC(=O)CSc3ccncc3)[C@H]2SC1 [Cephapirin sodium] | > 50 µM
65 | Oc1ccc2c(c1)OCO2 [Sesamol] | > 90 µM
66 | C=CCc1ccccc1OCC(O)CNC(C)C (stereo not drawn) [Alprenolol] | > 50 µM
67 | c1ccc2c(c1)oc1ccccc12 [Dibenzofuran] | > 90 µM
68 | CN(C)CCOC(c1ccc(Cl)cc1)c1ccccn1 (stereo not drawn) [Carbinoxamine maleate] | 23 µM
69 | Oc1c(Cl)cc(Cl)c2cccnc12 [Chloroxine] | 5.91 µM
70 | c1ccc(CC2=NCCN2)cc1 [Tolazoline hydrochloride] | > 20 µM
71 | c1ccc(Sc2ccccc2)cc1 [Diphenyl sulfide] | > 90 µM

Same assay, conditions: rat, gh3-tre-luc cells, AC50 (uM) modified / 1000, Tox21_110001=Tox21_111448; viability, 1 nM T3 present, 24 h

Row | SMILES | CC50 at 24 h
72 | CC(C)CC(N(C)C)C1(c2ccc(Cl)cc2)CCC1 (stereo not drawn) [Sibutramine hydrochloride] | > 50 µM

Same assay, conditions: rat, gh3-tre-luc cells, AC50 (uM) modified / 1000, Tox21_110001=Tox21_112815; viability, 1 nM T3 present, 24 h

Row | SMILES | CC50 at 24 h
73 | CC[C@H](C)[C@H](NC(=O)[C@H](Cc1ccccc1)NC(=O)[C@H](C)NC(=O)[C@H](CC(=O)O)NC(=O)[C@H](CCCCN)NC(=O)[C@H](CO)NC(=O)[C@@H]1CCCN1C(=O)[C@@H]1CCC(=O)N1)C(=O)NCC(=O)N[C@@H](CC(C)C)C(=O)N[C@@H](CCSC)C(N)=O [Eledoisin] ([pGlu]PSKDAFIGLM-NH2) | > 50 µM

Same assay, conditions: rat, gh3-tre-luc cells, AC50 (uM) modified / 1000, Tox21_110001=Tox21_200325; viability, 1 nM T3 present, 24 h

Row | SMILES | CC50 at 24 h
74 | O=C(O)c1cccc(Cl)c1 [3-Chlorobenzoic acid] | > 90 µM

Same assay, conditions: rat, gh3-tre-luc cells, AC50 (uM) modified / 1000, Tox21_110001=Tox21_300398; viability, 1 nM T3 present, 24 h

Row | SMILES | CC50 at 24 h
75 | CCOP(=S)(OCC)SCSCC [Phorate] | > 90 µM

Same assay, conditions: rat, gh3-tre-luc cells, AC50 (uM) modified / 1000, Tox21_110001=Tox21_300651; viability, 1 nM T3 present, 24 h

Row | SMILES | CC50 at 24 h
76 | O=C(Nc1ccccc1)Nc1cnns1 [Thidiazuron] | > 90 µM

Same assay, conditions: rat, gh3-tre-luc cells, AC50 (uM) modified / 1000, Tox21_110001=Tox21_302005; viability, 1 nM T3 present, 24 h

Row | SMILES | CC50 at 24 h
77 | CCOC(=O)N(C)C(=O)CSP(=S)(OCC)OCC [Mecarbam] | > 90 µM

Same assay, conditions: rat, gh3-tre-luc cells, AC50 (uM) modified / 1000, Tox21_110001=Tox21_302045; viability, 1 nM T3 present, 24 h

Row | SMILES | CC50 at 24 h
78 | NCCOS(=O)(=O)O [2-Aminoethyl hydrogen sulfate] | > 90 µM
